Data reported in the supplement of paper PMC4862054.

Columns and labels:
Assay in all cases: normalised viability (% of control), CellTiter-Blue; higher = more viable cells (100 = DMSO, 0 = benzethonium chloride kill control)
Conditions in all cases: incubation time: 72 h
HDQ-P1 = test system: HDQ-P1
Description: (§1)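 DSRT, CellTiter-Blue viability, 72 h incubation. Signal is normalised to DMSO and benzethonium chloride controls. Value is the normalised response at dose 1.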

Hs578T = test system: Hs578T
Description: as §1

MDA-MB-453 = test system: MDA-MB-453
Description: as §1

CAL-148 = test system: CAL-148
Description: as §1

CAL-85-1 = test system: CAL-85-1
Description: as §1

MDA-MB-468 = test system: MDA-MB-468
Description: as §1

BT-549 = test system: BT-549
Description: as §1

SK-BR-3 = test system: SK-BR-3
Description: as §1

MDA-MB-436 = test system: MDA-MB-436
Description: as §1

DU-4475 = test system: DU-4475
Description: as §1

CAL-120 = test system: CAL-120
Description: as §1

HCC1599 = test system: HCC1599
Description: as §1

MFM-223 = test system: MFM-223
Description: as §1

HCC1937 = test system: HCC1937
Description: as §1

HCC1143 = test system: HCC1143
Description: as §1

MDA-MB-231 = test system: MDA-MB-231
Description: as §1

BT-474 = test system: BT-474
Description: as §1

CAL-51 = test system: CAL-51
Description: as §1

Cc1c(C(=O)Nc2ccc(N3C[C@@H](C)O[C@@H](C)C3)nc2)cccc1-c1ccc(OC(F)(F)F)cc1 [NVP-LDE225] (1 nM)
normalised viability (HDQ-P1): 70.9% | normalised viability (Hs578T): 111% | normalised viability (MDA-MB-453): 108% | normalised viability (CAL-148): 92.9% | normalised viability (CAL-85-1): 99.5% | normalised viability (MDA-MB-468): 129% | normalised viability (BT-549): 87.2% | normalised viability (SK-BR-3): 91.5% | normalised viability (MDA-MB-436): 79.5% | normalised viability (DU-4475): 102% | normalised viability (CAL-120): 93.1% | normalised viability (HCC1599): 85.8% | normalised viability (MFM-223): 96.4% | normalised viability (HCC1937): 96.4% | normalised viability (HCC1143): 105% | normalised viability (MDA-MB-231): 98% | normalised viability (BT-474): 109% | normalised viability (CAL-51): 103%
